Like-named read-outs stand apart in the source and are kept apart here.
Assays:
Type in all cases: cell-based
[1] = test system: A549 NSCLC cell line; assay: AlamarBlue proliferation assay, A549; conditions: Homo sapiens
Method: (§1) Cytotoxicity is measured using fluorescence spectrophotometry.
(§2) TKI sensitivity was determined in NSCLC cell lines. Vandetanib and sunitinib sensitivity was measured in seven NSCLC cell lines. Erlotinib sensitivity was measured in nine NSCLC cell lines. An AlamarBlue proliferation assay at 72 hours was used to measure TKI sensitivity. GraphPad Prism 4.01 was used to determine IC50 values. Expression of seven miRNAs was measured by qRT-PCR. qRT-PCR data were normalized to the reference RNU6 and fold changes were computed against the selected sensitive cell line for each drug. A two-sided z-test was used to compute the p-values for the fold changes. A score was calculated for each miRNA/drug combination to see whether a miRNA can determine resistance across cell lines. Fold changes were first ternarized and assigned a value of +1, −1, or 0. Elevated miRNA expression relative to control (fold change>1 AND p-value<0.05) was assigned a value of +1. Reduced miRNA expression relative to control (fold change<1 AND p-value<0.05) was assigned a value of −1. Any non-significant fold change (p-value>0.05) was assigned a value of 0. These values were then multiplied by a value of +1 or −1 as assigned by the resistance characteristics of the cell line: Resistant cell lines were assigned a value=+1. Sensitive cell lines were assigned a value=−1. The final score was computed by the sum of the points for the cells lines divided by the number of cell lines (the reference cell line was not used in computing the scores).

[2] = test system: NSCLC cell lines classified as resistant; assay: AlamarBlue proliferation assay, NSCLC lines classified as resistant; conditions: read-out: IC50s of the remaining lines classified as resistant
Method: (§4) Cells in the log phase of expansion are harvested and counted. The cells are then adjusted to a density of 1×10^4 cells/ml, though the optimum cell density may vary between cell types. […] The AlamarBlue® reagent is mixed, and then aseptically added to the cells in an amount around 10% of the well volume. Cells are incubated in the presence of the reagent from 4-8 hours. Cytotoxicity is measured using fluorescence spectrophotometry. Absorbance is measured at 570 nm and 600 nm blanked in a plate containing medium only. To calculate the percent difference in reduction between treated and control cells in Percentage difference between treated and control cells
(§5) TKI sensitivity was determined in NSCLC cell lines. […] An AlamarBlue proliferation assay at 72 hours was used to measure TKI sensitivity. GraphPad Prism 4.01 was used to determine IC50 values.

[3] = test system: H520 NSCLC cell line; assay: AlamarBlue proliferation assay, H520; conditions: Homo sapiens
Method: as §1, §2

[4] = test system: H1703 Sunitinib resistant line B (H1703 SRb); assay: Alamar blue assay, H1703 SRb; conditions: Homo sapiens, NCI-H1703, read-out: Sunitinib IC50(μM), Example 3, mean of three experiments
Method: (§3) GraphPad Prism 4.01 was used to calculate IC50 values. […] GenoSensor GenoExplorer™ microRNA Expression System (Sanger miRNA Registry version 14 containing probes for 904 mature miRNAs and 450 pre-miRNAs) was used to screen miR expression. Differences in miRs expression between the parent and resistant cells were identified using at test with Benjamini-Hochberg correction and validated by qPCR. A score was calculated for each miRNA to determine whether a miRNA can predict SR.

[5] = test system: H2122 NSCLC cell line; assay: AlamarBlue proliferation assay, H2122; conditions: Homo sapiens
Method: as §1, §2

[6] = test system: H460 NSCLC cell line; assay: AlamarBlue proliferation assay, H460; conditions: Homo sapiens
Method: as §1, §2

[7] = test system: H1703 NSCLC cell line; assay: AlamarBlue proliferation assay, H1703; conditions: Homo sapiens
Method: as §1, §2

[8] = test system: H358 NSCLC cell line; assay: AlamarBlue proliferation assay, H358; conditions: Homo sapiens
Method: as §1, §2

[9] = test system: H1703 Sunitinib resistant line A (H1703 SRa); assay: Alamar blue assay, H1703 SRa; conditions: Homo sapiens, NCI-H1703, read-out: Sunitinib IC50(μM), Example 3, mean of three experiments
Method: as §3

[10] = test system: HCC827 NSCLC cell line; assay: AlamarBlue proliferation assay, HCC827; conditions: Homo sapiens, 72 hours
Method: One method of measuring IC50 by AlamarBlue proliferation that may be used in determining an IC50 is as follows:
as §4, §5

[11] = test system: HCC4006 NSCLC cell line; assay: AlamarBlue proliferation assay, HCC4006; conditions: Homo sapiens, 72 hours
Method: as §1
as §2, with “The final score was computed by the sum of the points for the cells lines divided by the number of cell lines (the reference cell line was not used in computing the scores).” left out

[12] = test system: H2073 NSCLC cell line; assay: AlamarBlue proliferation assay, H2073; conditions: NCI-H2073, 72 hours
Method: as §1
as §2, with “The final score was computed by the sum of the points for the cells lines divided by the number of cell lines (the reference cell line was not used in computing the scores).” left out

[13] = A549, AlamarBlue proliferation, 72 hours, read-out: IC50
[14] = range across resistant NSCLC lines, 72 hours
[15] = NCI-H520, H520, AlamarBlue proliferation, 72 hours, read-out: IC50
[16] = NCI-H2122, H2122, AlamarBlue proliferation, 72 hours, read-out: IC50
[17] = NCI-H460, H460, AlamarBlue proliferation, 72 hours, read-out: IC50
[18] = NCI-H1703, H1703, AlamarBlue proliferation, 72 hours, read-out: IC50
[19] = NCI-H358, H358, AlamarBlue proliferation, 72 hours, read-out: IC50

SMILES	IC50 ([1]; read-out: Sunitinib IC50(μM), A549, Example 3, mean of three experiments) [µM]	IC50 [1, 13] [µM]	IC50 [2, 14] [µM]	IC50 ([3]; NCI-H520, read-out: Sunitinib IC50(μM), H520, Example 3, mean of three experiments) [µM]	IC50 [3, 15] [µM]	IC50 [4] [µM]	IC50 ([5]; NCI-H2122, read-out: Sunitinib IC50(μM), H2122, Example 3, mean of three experiments) [µM]	IC50 [5, 16] [µM]	IC50 ([6]; NCI-H460, read-out: Sunitinib IC50(μM), H460, Example 3, mean of three experiments) [µM]	IC50 [6, 17] [µM]	IC50 ([7]; NCI-H1703, read-out: Sunitinib IC50(μM), H1703 control, Example 3, mean of three experiments) [µM]	IC50 [7, 18] [µM]	IC50 ([8]; NCI-H358, read-out: Sunitinib IC50(μM), H358, Example 3, mean of three experiments) [µM]	IC50 [8, 19] [µM]	IC50 [9] [µM]	IC50 [10] [µM]	IC50 [11] [µM]	IC50 ([2]; 72 h) [µM]	IC50 [12] [µM]
CCN(CC)CCNC(=O)c1c(C)[nH]c(/C=C2\C(=O)Nc3ccc(F)cc32)c1C [Sunitinib, N-[2-(diethylamino)ethyl]-5-[(Z)-(5-fluoro-1,2-dihydro-2-oxo-3H-indol-3-ylidine)methyl]-2,4-dimethyl-1H-pyrrole-3-carboxamide]	5.5	5.5	4.8 to 14.2	8.2	8.2	4.37	4.8	4.8	5.6	5.6	0.13	0.51	14.2	14.2	7.6	–	–	–	–
COc1cc2c(Nc3ccc(Br)cc3F)ncnc2cc1OCC1CCN(C)CC1 [Vandetanib]	–	9.7	2.1 to 13.9	–	12.1	–	–	5.9	–	13.9	–	2.1	–	4.2	–	0.55	–	–	–
C#Cc1cccc(Nc2ncnc3cc(OCCOC)c(OCCOC)cc23)c1 [Erlotinib, N-(3-ethynylphenyl)-6,7-bis(2-methoxyethoxy)quinazolin-4-amine]	–	> 50	–	–	> 50	–	–	12.3	–	39.2	–	> 50	–	28.6	–	–	0.02	≥ 9.7	9.7

— patent US20120095030A1, “METHODS AND KITS TO PREDICT THERAPEUTIC OUTCOME OF TYROSINE KINASE INHIBITORS” (THE TRANSLATIONAL GENOMICS RESEARCH INSTITUTE, priority 2009, published 2012)
